Laboratory results published in the supplement of paper PMC10307832.

Assays:
Assay in all cases: relative viability (nuclei count vs DMSO), 5 days (fraction); higher = more cells survive
Apatinib + Olaparib = compound: N#CC1(c2ccc(NC(=O)c3cccnc3NCc3ccncc3)cc2)CCCC1 [Apatinib] + O=C(c1cc(Cc2n[nH]c(=O)c3ccccc23)ccc1F)N1CCN(C(=O)C2CC2)CC1 [Olaparib] (partner 8 µM)
Procedure, shortened: (§1)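 Values are medians from duplicate plates. Each reflects relative viability, defined as the nuclei count of treated wells over that of vehicle wells. Lung cancer cell lines in 1536-well plates were pin-tool dosed one day after seeding with one drug alone or with a fixed anchor-drug dose plus five library-drug doses (not always all listed) in √10 steps, then fixed, stained and imaged at 4× after 5 days.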

Apatinib + Pictilisib = compound: N#CC1(c2ccc(NC(=O)c3cccnc3NCc3ccncc3)cc2)CCCC1 [Apatinib] + CS(=O)(=O)N1CCN(Cc2cc3nc(-c4cccc5[nH]ncc45)nc(N4CCOCC4)c3s2)CC1 [Pictilisib] (partner 1 µM)
Procedure, shortened: as §1

Metformin + Foretinib = compound: CN(C)C(=N)NC(=N)N [Metformin] + COc1cc2c(Oc3ccc(NC(=O)C4(C(=O)Nc5ccc(F)cc5)CC4)cc3F)ccnc2cc1OCCCN1CCOCC1 [Foretinib] (partner 0.25 µM)
Procedure, shortened: as §1

Apatinib + Palbociclib = compound: N#CC1(c2ccc(NC(=O)c3cccnc3NCc3ccncc3)cc2)CCCC1 [Apatinib] + CC(=O)c1c(C)c2cnc(Nc3ccc(N4CCNCC4)cn3)nc2n(C2CCCC2)c1=O [Palbociclib] (partner 0.5 µM)
Procedure, shortened: as §1

Cell Line: NCI-H460
- relative viability (Apatinib + Olaparib; first compound 0.08 µM): 0.407
- relative viability (Apatinib + Olaparib; first compound 0.253 µM): 0.444
- relative viability (Apatinib + Olaparib; first compound 0.8 µM): 0.344
- relative viability (Apatinib + Olaparib; first compound 2.53 µM): 0.323
- relative viability (Apatinib + Olaparib; first compound 8 µM): 0.237
- relative viability (Apatinib + Pictilisib; first compound 0.08 µM): 0.335
- relative viability (Apatinib + Pictilisib; first compound 0.253 µM): 0.374
- relative viability (Apatinib + Pictilisib; first compound 0.8 µM): 0.452
- relative viability (Apatinib + Pictilisib; first compound 2.53 µM): 0.391
- relative viability (Apatinib + Pictilisib; first compound 8 µM): 0.458
- relative viability (Metformin + Foretinib; first compound 10 µM): 0.949
- relative viability (Metformin + Foretinib; first compound 31.62 µM): 0.998
- relative viability (Metformin + Foretinib; first compound 100 µM): 0.961
- relative viability (Metformin + Foretinib; first compound 316.23 µM): 1.02
- relative viability (Metformin + Foretinib; first compound 1000 µM): 1.03
- relative viability (Apatinib + Palbociclib; first compound 0.08 µM): 0.188
- relative viability (Apatinib + Palbociclib; first compound 0.253 µM): 0.191
- relative viability (Apatinib + Palbociclib; first compound 0.8 µM): 0.103
- relative viability (Apatinib + Palbociclib; first compound 2.53 µM): 0.182
- relative viability (Apatinib + Palbociclib; first compound 8 µM): 0.137
